According to patent publication US7312245B2 (priority 2001, dated 2007):
Like-named read-outs stand apart in the source and are kept apart here.

Experiments:
Assay type in all cases: in vivo
Pyricularia oryzae [1] = conditions: nursery box treated with granules 50 g per box; rice Koshihikari; inoculated 30 days after transplantation; lesions counted after 1 week
Pyricularia oryzae [2] = conditions: spray application of wettable powder diluted to 500 ppm; rice Koshihikari 2-leaf stage; spray-inoculated with Pyricularia oryzae spores; examined after 7 days
Pyricularia oryzae [3] = conditions: granules applied to water surface at 3 kg/10 ares; rice Koshihikari; inoculated 30 days after application; lesions checked after 1 week

Structure (SMILES)	Grade of Effect (preventive value, rice blast controlling effect) (Pyricularia oryzae [1])	Grade of Effect (preventive value, rice blast controlling effect) (Pyricularia oryzae [2])	Grade of Effect (preventive value, rice blast controlling effect) (Pyricularia oryzae [3])
CC(C)OC(=O)NC(CNC(=O)c1ccc2ccccc2c1)C(C)C (stereo not drawn) [compound 242]	A (From 80% to 100%)	A (100%)	A (From 80% to 100%)
Cc1ccc(C(=O)NCC(NC(=O)OC(C)C)C(C)C)s1 (stereo not drawn) [compound 243]	A (From 80% to 100%)	A (100%)	A (From 80% to 100%)
Cc1ccc(C(=O)NCC(C)(NC(=O)OC(C)C)C(C)C)cc1 (stereo not drawn) [compound 245]	A (From 80% to 100%)	A (100%)	A (From 80% to 100%)
Cc1ccc(C(=O)NC(C)C(NC(=O)OC(C)C)C(C)C)cc1 (stereo not drawn) [compound 246]	A (From 80% to 100%)	A (100%)	A (From 80% to 100%)
CC(C)OC(=O)NC(C(C)C)C(C)NC(=O)c1ccc(Cl)cc1 (stereo not drawn) [compound 247]	A (From 80% to 100%)	A (100%)	A (From 80% to 100%)
Cc1ccc(C(=O)NCC(NC(=O)OC(C)C)c2ccccc2)cc1 (stereo not drawn) [compound 279]	A (From 80% to 100%)	A (100%)	A (From 80% to 100%)
Cc1ccc(C(=O)NCC(NC(=O)OC(C)C)c2ccc(Cl)cc2)cc1 (stereo not drawn) [compound 284]	A (From 80% to 100%)	A (100%)	A (From 80% to 100%)
Cc1ccc(C(=O)NCC(Cc2ccccc2)NC(=O)OC(C)C)cc1 (stereo not drawn) [compound 289]	A (From 80% to 100%)	A (100%)	A (From 80% to 100%)
CC(C)OC(=O)NC(CNC(=O)c1ccc(Cl)cc1)Cc1ccccc1 (stereo not drawn) [compound 290, N-(4-chlorobenzoyl)-N′-(i-propoxycarbonyl)-3-phenyl-1,2-propanediamine]	A (From 80% to 100%)	A (100%)	A (From 80% to 100%)
CC(C)COC(=O)NC(CNC(=O)c1ccc(Cl)cc1)C(C)C (stereo not drawn) [compound 384]	A (From 80% to 100%)	A (100%)	A (From 80% to 100%)
Cc1ccc(C(=O)NCC(NC(=O)OCC(C)C)C(C)C)cc1 (stereo not drawn) [compound 387]	A (From 80% to 100%)	A (100%)	A (From 80% to 100%)
Cc1ccc(C(=O)NCC(NC(=O)OC(C)(C)C)C(C)C)cc1 (stereo not drawn) [compound 464]	B (50% or more and less than 80%)	B (80% or more and less than 100%)	B (50% or more and less than 80%)
Cc1ccc(C(=O)NCC(C)(NC(=O)OC(C)(C)C)C(C)C)cc1 (stereo not drawn) [compound 469]	B (50% or more and less than 80%)	B (80% or more and less than 100%)	B (50% or more and less than 80%)
Cc1ccc(C(=O)NC(C)C(NC(=O)OC(C)(C)C)C(C)C)cc1 (stereo not drawn) [compound 470]	A (From 80% to 100%)	A (100%)	A (From 80% to 100%)
CC(C)C(NC(=O)OC(C)(C)C)C(C)NC(=O)c1ccc(Cl)cc1 (stereo not drawn) [compound 471]	A (From 80% to 100%)	A (100%)	A (From 80% to 100%)
Cc1ccc(C(=O)NCC(NC(=O)OC(C)(C)C)c2ccccc2)cc1 (stereo not drawn) [compound 504, N-(t-butoxycarbonyl)-N′-(4-methylbenzoyl)-1-phenyl-1,2-ethylenediamine]	B (50% or more and less than 80%)	B (80% or more and less than 100%)	B (50% or more and less than 80%)
CC(C)C(CNC(=O)c1ccccc1)NC(=O)Oc1ccccc1 (stereo not drawn) [compound 526]	A (From 80% to 100%)	A (100%)	A (From 80% to 100%)

Structure (SMILES)	Grade of Effect (preventive value, rice blast controlling effect) (Pyricularia oryzae [1])	Grade of Effect (preventive value, rice blast controlling effect) (Pyricularia oryzae [2])	Grade of Effect (preventive value, rice blast controlling effect) (Pyricularia oryzae [3])
Cc1ccc(C(=O)NCC(NC(=O)Oc2ccccc2)C(C)C)cc1 (stereo not drawn) [compound 530]	A (From 80% to 100%)	A (100%)	A (From 80% to 100%)
CC(C)C(CNC(=O)c1ccccc1)NC(=O)OCc1ccccc1 (stereo not drawn) [compound 596]	A (From 80% to 100%)	A (100%)	A (From 80% to 100%)
Cc1ccc(C(=O)NCC(NC(=O)OCc2ccccc2)C(C)C)cc1 (stereo not drawn) [compound 600]	A (From 80% to 100%)	A (100%)	A (From 80% to 100%)
O=C(NC(CNC(=O)c1ccccc1)c1ccccc1)OCc1ccccc1 (stereo not drawn) [compound 636, N-(benzyloxycarbonyl)-N′-benzoyl-1-phenyl-1,2-ethylenediamine]	A (From 80% to 100%)	A (100%)	A (From 80% to 100%)
C=CCOC(=O)NC(CNC(=O)c1ccc(Cl)cc1)C(C)C (stereo not drawn) [compound 739]	A (From 80% to 100%)	A (100%)	A (From 80% to 100%)
C=CCOC(=O)NC(CNC(=O)c1ccc(C)cc1)C(C)C (stereo not drawn) [compound 742]	A (From 80% to 100%)	A (100%)	A (From 80% to 100%)
C#CCOC(=O)NC(CNC(=O)c1ccc(Cl)cc1)C(C)C (stereo not drawn) [compound 804]	A (From 80% to 100%)	A (100%)	A (From 80% to 100%)
C#CCOC(=O)NC(CNC(=O)c1ccc(C)cc1)C(C)C (stereo not drawn) [compound 807]	A (From 80% to 100%)	A (100%)	A (From 80% to 100%)
Cc1ccc(COC(=O)NC(CNC(=O)c2ccc(Cl)cc2)C(C)C)cc1 (stereo not drawn) [compound 1049]	A (From 80% to 100%)	A (100%)	A (From 80% to 100%)
Cc1ccc(COC(=O)NC(CNC(=O)c2ccc(C)cc2)C(C)C)cc1 (stereo not drawn) [compound 1050]	A (From 80% to 100%)	A (100%)	A (From 80% to 100%)
CC(C)C(CNC(=O)c1ccc(Cl)cc1)NC(=O)OCc1ccc(Cl)cc1 (stereo not drawn) [compound 1063]	A (From 80% to 100%)	A (100%)	A (From 80% to 100%)
Cc1ccc(C(=O)NCC(NC(=O)OCc2ccc(Cl)cc2)C(C)C)cc1 (stereo not drawn) [compound 1066]	A (From 80% to 100%)	A (100%)	A (From 80% to 100%)
CC(OC(=O)NC(CNC(=O)c1ccc(Cl)cc1)C(C)C)c1ccccc1 (stereo not drawn) [compound 1078]	A (From 80% to 100%)	A (100%)	A (From 80% to 100%)
Cc1ccc(C(=O)NCC(C)(NC(=O)OC(C)c2ccccc2)C(C)C)cc1 (stereo not drawn) [compound 1081]	A (From 80% to 100%)	A (100%)	A (From 80% to 100%)
CC(C)C(CNC(=O)c1ccc(Cl)cc1)NC(=O)OCc1ccco1 (stereo not drawn) [compound 1123]	A (From 80% to 100%)	A (100%)	A (From 80% to 100%)
Cc1ccc(C(=O)NCC(NC(=O)OCc2ccco2)C(C)C)cc1 (stereo not drawn) [compound 1126]	A (From 80% to 100%)	A (100%)	A (From 80% to 100%)
CC(C)C(CNC(=O)c1ccc(Cl)cc1)NC(=O)OCc1ccoc1 (stereo not drawn) [compound 1138]	A (From 80% to 100%)	A (100%)	A (From 80% to 100%)
